{"source": "a melting point compilation (Tetko et al.)", "data": [{"units": {"melting point": "°C"}, "values": [{"smiles": "Cc1cc(O)c2c(c1)C(=O)c1cccc(O)c1C2=O", "melting point": 196}, {"smiles": "CC(=O)OCCC(C)C", "melting point": -78.5}, {"smiles": "CCOc1c2cccc1Cc1cccc(c1O)Cc1cccc(c1OP(=O)(OCC)OCC)Cc1cccc(c1O)C2", "melting point": "173 to 174"}, {"smiles": "CSc1nc(NS(=O)(=O)c2ccc(C)cc2)c(C#N)c(-c2ccccc2)c1Br", "melting point": "212 to 216"}, {"smiles": "O=[N+]([O-])c1ccccc1C=Cc1cc(/C=C/c2ccccc2[N+](=O)[O-])c([N+](=O)[O-])cc1[N+](=O)[O-]", "melting point": 291}, {"smiles": "CC(C)CC(N)P(=O)(O)O", "note": "(centres undefined)", "melting point": "274 to 280"}, {"smiles": "CC(=O)OC1OC(=O)c2ccccc21", "note": "(centres undefined)", "melting point": 71}, {"smiles": "CCC(C)(C)N", "melting point": -105}, {"smiles": "NN=C(N)C(S)=NN", "melting point": 150}, {"smiles": "CCCCCCCCCCCCCC(=O)CC", "melting point": 43}, {"smiles": "O=Cc1ccc(-c2ccccc2OC(F)(F)F)o1", "melting point": "72 to 74"}, {"smiles": "Nc1ccc(F)nc1", "melting point": 91}, {"smiles": "Clc1ncc(Br)c(Cl)n1", "melting point": 30}, {"smiles": "O=C(C(F)(F)F)C(F)(F)Cl", "melting point": -133}, {"smiles": "Cc1nn(-c2ccccc2)nc1C(=O)NN", "melting point": "123 to 125"}, {"smiles": "CCOC(=O)CCCCCCC(=O)OCC", "melting point": 5.9}, {"smiles": "CCOC(=O)c1[nH]c(C)c(Br)c1C", "melting point": 142}, {"smiles": "Cc1c2ccccc2cc2ccc3ccccc3c12", "melting point": 138}, {"smiles": "O[C@@H](c1ccccc1)[C@@H](O)c1ccccc1", "melting point": 149}, {"smiles": "CC(C)(C)c1ccc(C(N)=S)cc1", "melting point": "145 to 148"}, {"smiles": "CC(C)N1CSc2nnc(-c3cccc([N+](=O)[O-])c3)n2C1", "melting point": 165}, {"smiles": "CCOC(=O)C=CN(C)C", "melting point": 17.5}, {"smiles": "COc1ccc(NC(N)=S)c(OC)c1", "melting point": "199 to 201"}, {"smiles": "C=CC(=O)OCCCCCC", "melting point": -45}, {"smiles": "O=C(c1ccccc1)c1cnc2ccc(Br)cn2c1=O", "melting point": "208 to 210"}, {"smiles": "O=C(C(=O)c1ccc(Cl)cc1)c1ccccc1", "melting point": 67}, {"smiles": "N#C/C(=N\\Nc1ccc(S(=O)(=O)O)cc1)c1nc2ccccc2s1", "melting point": 193}, {"smiles": "Clc1ccc2oc3c(Cl)c(Cl)c(Cl)c(Cl)c3c2c1", "melting point": 178}, {"smiles": "O=C(c1cccs1)c1coc(-c2ccc(Cl)cc2)c1S(=O)(=O)c1ccccc1", "melting point": 115}, {"smiles": "CCCCCCCCCC(=O)OC", "melting point": -18}, {"smiles": "OC1OCCCC1(Cl)Cl", "note": "(centres undefined)", "melting point": "87 to 90"}, {"smiles": "Cc1cc(-c2onc(C)c2C(=O)Cl)no1", "melting point": 57}, {"smiles": "N#Cc1ccc(Cn2cccn2)cc1", "melting point": "80 to 82"}, {"smiles": "Cn1cnc(N)c2ncnc1-2", "melting point": 300}, {"smiles": "NS(=O)(=O)c1cc(C(F)(F)F)ccc1C(F)(F)F", "melting point": 147}, {"smiles": "COC(=O)c1ccc(OC)c(S(=O)(=O)Cl)c1", "melting point": "126 to 128"}, {"smiles": "CC(C)(C)c1cc(O)c(O)c(C(C)(C)C)c1", "melting point": "96 to 99"}, {"smiles": "O=C1C2C3C=CC(C3)C2C(=O)N1O", "note": "(centres undefined)", "melting point": "167 to 170"}, {"smiles": "COC(=O)c1c(C)noc1-c1cc(C)on1", "melting point": "84 to 86"}, {"smiles": "CC(=O)N(c1ccccc1)c1cc(N(C(C)=O)c2ccccc2)c([N+](=O)[O-])cc1[N+](=O)[O-]", "melting point": 233}, {"smiles": "CC(=O)c1nn(-c2ccccc2[N+](=O)[O-])c(=N)s1", "melting point": 186}, {"smiles": "O=C(O)CN(CC(=O)O)Cc1cc2c(cc1O)Oc1cc(O)c(CN(CC(=O)O)CC(=O)O)cc1C21OC(=O)c2ccccc21", "melting point": 200}, {"smiles": "Nc1cccc(-c2ccncc2)c1", "melting point": "167 to 168"}, {"smiles": "COc1nsc(Nc2ccc(Br)cc2)n1", "melting point": "237 to 239"}, {"smiles": "CN1C(=O)CN=C(c2ccccc2F)c2cc(Cl)ccc21", "melting point": 296}, {"smiles": "ON=Cc1cccnc1", "melting point": 150}, {"smiles": "O=C(C=Cc1ccc(-c2ccc([N+](=O)[O-])cc2)o1)c1ccccc1", "melting point": "157 to 158"}, {"smiles": "Cc1c(O)ccc2c1OC(C)(C)CC2=O", "melting point": "181 to 182"}, {"smiles": "CCCCCC=O", "melting point": -56}, {"smiles": "CN(C)c1ccc(CO)cc1", "melting point": 69}, {"smiles": "C(=Cc1ccccc1)CCC=Cc1ccccc1", "melting point": 82}, {"smiles": "CC1(c2ccccc2)CC(C(=NOC(=O)Cc2ccccc2)c2cc3ccccc3o2)C1", "note": "(centres undefined)", "melting point": "144 to 145"}, {"smiles": "COC(=O)c1ccc(I)cc1O", "melting point": 69}, {"smiles": "OCc1ccccc1S", "melting point": 32}, {"smiles": "c1ccc(N=Nc2ccc(Nc3ccccc3)cc2)cc1", "melting point": 90}, {"smiles": "O=C(c1cccc(F)c1)c1cccc(F)c1", "melting point": 59}, {"smiles": "Sc1nccn1-c1cc(Cl)ccc1Cl", "melting point": 273}, {"smiles": "Fc1cnccc1I", "melting point": 88}, {"smiles": "O=C(CBr)Nc1ccccc1Cl", "melting point": "89 to 91"}, {"smiles": "Oc1ccc2ccccc2c1/N=N/c1ccc(/N=N\\c2ccccc2)cc1", "melting point": 199}, {"smiles": "CN(C(=O)COc1nc2ccccc2s1)c1ccccc1", "melting point": 135}, {"smiles": "NC(N)=Nc1nc(CSCCC(N)=NS(N)(=O)=O)cs1", "melting point": 163}, {"smiles": "COc1ccc2c(OC)c3ccoc3nc2c1OC", "melting point": 177}, {"smiles": "CNc1ncc(C(F)(F)F)cc1[N+](=O)[O-]", "melting point": "98 to 100"}, {"smiles": "CC(=O)c1ccc(C=O)cc1", "melting point": 33}, {"smiles": "Cc1nc(Cl)ccc1I", "melting point": 32}, {"smiles": "N#Cc1c(N2CCCC2)cc(Cl)nc1N1CCCC1", "melting point": "132 to 140"}, {"smiles": "CC(=O)Oc1ccc2c(c1)CCC1C2CCC2(C)C(=O)C(OC(C)=O)CC12", "note": "(centres undefined)", "melting point": 180}, {"smiles": "CON=C(c1cc2ccccc2o1)c1cc2ccccc2o1", "melting point": "131 to 132"}, {"smiles": "CCOP(=S)(OCC)ON=C(C#N)c1ccccc1", "melting point": 6.1}, {"smiles": "CCC(N)CO", "note": "(centres undefined)", "melting point": -2}, {"smiles": "COC(=O)c1ccc(-c2ccccc2)nc1", "melting point": 110}, {"smiles": "Cc1cnc(N)c(I)c1", "melting point": 88}, {"smiles": "Cc1ccc2c3ccccc3c3ccccc3c2c1", "melting point": 100}, {"smiles": "CCN(CC)CCn1cnc2c1c(=O)n(C)c(=O)n2C", "melting point": 75}, {"smiles": "O=P(O)(O)Cc1ccccc1", "melting point": 169}, {"smiles": "CCOC(=O)[C@]12C[C@@H](c3ccccc3)c3ccccc3[C@H]1c1ccccc1OC2=O", "melting point": 162}, {"smiles": "CC(=O)Nc1ccccc1F", "melting point": 78}, {"smiles": "O=C1NC(=O)C(=NNc2ccccc2)C(=O)N1", "melting point": "309 to 310"}, {"smiles": "Cc1cc2ccccc2cc1C", "melting point": 105}, {"smiles": "CC(=O)Oc1ccc2c(c1)Oc1cc(OC(C)=O)ccc1C21OC(=O)c2ccccc21", "melting point": "200 to 205"}, {"smiles": "O=C=Nc1ccccc1Cl", "melting point": 30.5}, {"smiles": "Nc1ccc2c(c1)OCO2", "melting point": "38 to 43"}, {"smiles": "Cn1nc(-c2ccccc2)cc1CCl", "melting point": "70 to 72"}, {"smiles": "C#CCCCCCCCCC", "melting point": -25}, {"smiles": "C=C(C)C=O", "melting point": -81}, {"smiles": "OCc1cc(Cl)ccc1Cl", "melting point": 78}, {"smiles": "FC(F)(F)C(F)(F)C(F)(F)C(F)(F)C(F)(F)C(F)(F)OC(F)(F)C(F)(F)C(F)(F)C(F)(F)C(F)(F)C(F)(F)F", "melting point": -90}, {"smiles": "Cc1onc(-c2ccc(F)cc2)c1C(=O)Cl", "melting point": "51 to 55"}, {"smiles": "CC(=O)CC(=O)Nc1ccccc1Cl", "melting point": 105}, {"smiles": "COc1ccc(CNc2ccc([N+](=O)[O-])c3nonc23)cc1", "melting point": "176 to 180"}, {"smiles": "Brc1ccc2c(c1)CCO2", "melting point": "49 to 50"}, {"smiles": "CSc1nc(N)c(C(=O)c2ccc(Cl)cc2)s1", "melting point": "148 to 150"}, {"smiles": "O=C1OC(c2ccccc2)=N/C1=C/c1cc(/C=C2/N=C(c3ccccc3)OC2=O)c([N+](=O)[O-])cc1[N+](=O)[O-]", "melting point": 266}, {"smiles": "CCOc1nc(NC)nc(NC(=O)NS(=O)(=O)c2ccccc2C(=O)OC)n1", "melting point": 194}, {"smiles": "CSc1nc(C=O)ccc1C#N", "melting point": 140}, {"smiles": "COc1cc2c(cc1OCc1ccccc1)C(C)NCC2", "note": "(centres undefined)", "melting point": 91}, {"smiles": "C[C@]12CC(=O)C[C@@]1(C)CC(=O)C2", "melting point": "228 to 230"}, {"smiles": "NC(CCc1ccccc1)C(=O)O", "note": "(single isomer, unassigned; (-))", "melting point": 300}, {"smiles": "Cc1ccc(Br)c(C)c1", "melting point": -17}, {"smiles": "O=C(O)c1ccc(F)c(F)c1", "melting point": "122 to 125"}, {"smiles": "O=Cc1ccc(C=O)s1", "melting point": "114 to 117"}, {"smiles": "Cc1nc([N+](=O)[O-])cn1-c1ccc([N+](=O)[O-])cc1", "melting point": 186}, {"smiles": "COc1cccc(C=Nn2c(C)cc(C)c(C#N)c2=O)c1O", "melting point": "209 to 212"}, {"smiles": "CC(CBr)c1ccccc1", "note": "(centres undefined)", "melting point": -59.3}, {"smiles": "CC=CC1=C(C(=O)O)N2C(=O)C(NC(=O)C(N)c3ccc(O)cc3)C2SC1", "note": "(centres undefined)", "melting point": 222}, {"smiles": "NS(=O)(=O)c1ccc(Oc2ccccc2)cc1", "melting point": 131}, {"smiles": "Cc1cc(CO)nn1-c1ccccn1", "melting point": "44 to 46"}, {"smiles": "O=C1OC(C(Cl)(Cl)Cl)Cc2ccccc21", "note": "(centres undefined)", "melting point": 119}, {"smiles": "CCCCCCCCCCCCc1ccccc1S(=O)(=O)O", "melting point": 10}, {"smiles": "Cc1cc(C=O)no1", "melting point": "31 to 33"}, {"smiles": "O=C1C(Cl)=C(Cl)C(=O)c2ccccc21", "melting point": 195}, {"smiles": "NNc1c2ccccc2nc2ccccc12", "melting point": 177}, {"smiles": "COC(=O)c1cscc1N", "melting point": "35 to 38"}, {"smiles": "Cc1cc(C(=O)O)n[nH]1", "melting point": "241 to 242"}, {"smiles": "O=C(O)C1CCN(C(=O)OCc2ccccc2)CC1", "melting point": "78 to 81"}, {"smiles": "COc1ccccc1Cl", "melting point": -26.8}, {"smiles": "CCOC(=O)c1cc(C)[nH]c(=S)c1C#N", "melting point": 214}, {"smiles": "Cc1c(N=C=O)cnn1-c1ccccc1", "melting point": "56 to 60"}, {"smiles": "O=Nc1c(-c2cccs2)nc2ncccn12", "melting point": 239}, {"smiles": "OCCN1CCNC1=S", "melting point": "136 to 138"}, {"smiles": "CCCCCCCc1ccc(C(=O)O)cc1", "melting point": 102}, {"smiles": "O=C(O)C1CCN(c2ccc(C(F)(F)F)cn2)CC1", "melting point": "162 to 164"}, {"smiles": "COc1ccc(C(=O)O)cc1[N+](=O)[O-]", "melting point": "191 to 194"}, {"smiles": "Oc1c(I)cc(I)c2cccnc12", "melting point": 210}, {"smiles": "O=C1NC(=O)C(=Cc2ccc(-c3cccc([N+](=O)[O-])c3)o2)C(=O)N1", "melting point": 280}, {"smiles": "CCCC1OC2CC3C4CCC5=CC(=O)C=CC5(C)C4C(O)CC3(C)C2(C(=O)CO)O1", "note": "(centres undefined)", "melting point": 226}, {"smiles": "Nc1ncccc1OCc1ccccc1", "melting point": "94 to 98"}, {"smiles": "c1ccc(Nc2ccccn2)nc1", "melting point": 90.5}]}]}
